Experimental findings from patent US7169759B1, “Tetrapeptide inhibitors of β-secretase” (Elan Pharmaceuticals, Inc., priority 1999, dated 2007) are described below.

*1 amine or outer side, *2 acyl side, *3 side chain or, on linkers, in order; H or OH if unused. Where a SMILES comes first, the peptide text is derived from it. [ ]: non-standard residue; d: D form. The star is where a group is joined. Sta = CC(C)C[C@H](N)[C@@H](O)CC(=O)O; X1 = CC(C)CC(N[*:1])C(O)CC(=O)[*:2]; Phg = N[CH](C(=O)O)c1ccccc1; Isovaleryl = CC(C)CC(=O)*; Boc = CC(C)(C)OC(=O)* Some results are limits rather than exact numbers.

Sequence of β-secretase (P56817 46-501): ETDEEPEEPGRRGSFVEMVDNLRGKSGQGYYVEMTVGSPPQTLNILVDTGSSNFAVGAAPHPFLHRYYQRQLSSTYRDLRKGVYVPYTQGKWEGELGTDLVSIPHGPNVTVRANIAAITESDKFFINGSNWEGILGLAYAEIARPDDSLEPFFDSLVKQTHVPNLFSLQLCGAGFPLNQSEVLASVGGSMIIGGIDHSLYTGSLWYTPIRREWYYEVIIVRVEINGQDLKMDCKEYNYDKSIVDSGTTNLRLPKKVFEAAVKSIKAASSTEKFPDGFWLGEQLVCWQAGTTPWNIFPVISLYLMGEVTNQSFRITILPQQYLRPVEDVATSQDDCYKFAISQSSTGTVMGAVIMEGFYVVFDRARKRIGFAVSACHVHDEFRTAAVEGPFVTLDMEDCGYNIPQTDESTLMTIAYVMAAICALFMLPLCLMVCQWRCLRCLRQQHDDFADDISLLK

The first experiment concerns the target β-secretase (Homo sapiens, UniProt P56817). The experiment in a line: assays with β-secretase (pepstatin remark).
Conditions: not given
The experiment is classed as biochemical.
On to `CC(C)CC(=O)N[C@H](C(=O)N[C@H](C(=O)N[C@@H](CC(C)C)[C@@H](O)CC(=O)N[C@@H](C)C(=O)N[C@@H](CC(C)C)[C@@H](O)CC(=O)O)C(C)C)C(C)C` [pepstatin] (Isovaleryl-VV[Sta]A[Sta]-OH), for which the “inhibitory activity in assays with β-secretase” value was “no inhibitory activity”.

The target of another experiment is T1, Human brain β-Secretase (Homo sapiens, UniProt P56817).
T1 construct: Human brain β-Secretase from the concentrated HiQ pool prepared Jul; from tissue; host or cells: human brain
T1 sequence (P56817 46-501): as above
The experiment in a line: MBP-C125 enzyme inhibition assay (ELISA detection of β-secretase cleavage of MBP-C125 substrate). The settings on record: pH 4.5, 37° C., 90 minutes, highest concentration 200 μM, read-out: IC50 Group. The experiment is classed as biochemical. As for the experimental part: Enzyme Inhibition Assay Purpose/Rationale:
The MBP-C125 assay, determines relative inhibition of β-secretase cleavage of an MPB-C125 substrate by the compounds assayed. Human brain β-Secretase from the concentrated HiQ pool prepared Jul. 16, 1997 in 0.20% Triton is used in the assay. Inhibition data was obtained from an ELISA which uses an anti-MBP capture antibody (on precoated and blocked 96-well high binding plates) followed by incubation with diluted enzyme reaction supernatant, incubation with an anti-SW192 specific biotinylated reporter antibody and incubation with streptavidin/alkaline phosphatase. Detection was effected by a fluorescent substrate signal on cleavage by the phosphatase. The ELISA only detected cleavage following Leu 596 at the substrate's Swedish APP 751 mutation site.
Compounds were diluted in a 1:1 dilution series to a six-point concentration curve (two wells per concentration) which took up one 96-plate row per compound tested.
Each of the test compounds was weighed out into a vial and DMSO was added to make up a 10 mM solution. To obtain a final compound concentration of 200 μM at the high point of a 6-point dilution curve, 100 μL of the 10 mM solution was added to well C1 of a 96-well V-bottom plate. Fifty μL of DMSO was added to odd wells of row C across the plate and 1:1 serial dilutions were made. 10 μL of each dilution was added to each of two wells on row C of a corresponding V-bottom plate to which 190 μL of 52 mM NaOAc/7.9% DMSO, pH 4.5 were pre-added. The NaOAc diluted compound plate was spun down to pellet precipitant and 20 μL/well was transferred to a corresponding flat-bottom plate to which 30 μL of ice-cold enzyme-substrate mixture (2.5 μL MBP-C125 substrate, 0.03 μL enzyme and 24.5 ice cold 0.09% TX100 per 30 μl) was added. The compound concentration in the final enzyme reaction was thus 50 times less than the starting concentration. The final reaction mixture of 200 μM compound for the highest curve point was in 5% DMSO, 20 mM NaAc, 0.06% TX100, at pH 4.5. The enzyme reaction was started by warming the plates to 37° C. After 90 minutes at 37° C., 200 μL/well cold specimen diluent was added to stop the reaction and 20 μL/well was transferred to a corresponding α-MBP coated ELISA plate, containing 80 μL/well specimen diluent. This reaction was incubated overnight at 4° C. and the ELISA was developed the next day using a 2 hr. incubation with α-192SW followed by Streptavidin-AP conjugate and flourescent substrate. The signal was read on a fluorescent plate reader.
As to `CSCCC(NC(=O)C(NC(=O)OC(C)(C)C)C(C)C)C(=O)NC(CC(C)C)C(O)CC(=O)NC(C(=O)NC(C)c1ccc(C(=O)O)cc1)C(C)C` (centres unmarked) [Example 31], the IC50 was 10 to 99 µM. On to `CSCCC(NC(=O)C(NC(=O)OC(C)(C)C)C(C)C)C(=O)NC(CC(C)C)C(O)CC(=O)NC(C(=O)NC1CCC(C(=O)O)C(C(=O)O)C1)C(C)C` (centres unmarked) [Example 32], for which the IC50 is less than 10 µM.

For `CSCCC(NC(=O)C(NC(=O)OC(C)(C)C)C(C)C)C(=O)NC(CC(C)C)C(O)CC(=O)NC(C(=O)NC(C(=O)O)c1ccccc1)C(C)C` (centres unmarked) [Example 35] (Boc-VM[X1]V[Phg]-OH; configuration not given here), the IC50 fell in the range of 10 to 99 µM.

On to `CSCCC(NC(=O)C(NC(=O)OC(C)(C)C)C(C)C)C(=O)NC(CC(C)C)C(O)CC(=O)NC(C(=O)NCCc1ccc(O)c([N+](=O)[O-])c1)C(C)C` (centres unmarked) [Example 36], for which the IC50 is less than 10 µM. Regarding `CC(=O)NC(C(=O)NC(C(=O)NC(Cc1ccccc1)C(O)CC(=O)NC(C(=O)NCc1ccc(C(=O)O)cc1)C(C)C)c1ccccc1)C(C)C` (centres unmarked) [Example 37], the half-inhibitory concentration (IC50) is less than 10 µM. Turning to `CC(C)CC(NC(=O)C(NC(=O)C(NC(=O)OCc1ccccc1)C(C)C)c1ccccc1)C(O)CC(=O)NC(C(=O)NCc1ccc(C(=O)O)cc1)C(C)C` (centres unmarked) [Example 38], the IC50 fell in the range of 10 to 99 µM.

For the molecule `CC(C)CC(NC(=O)C(NC(=O)C(NC(=O)OC(C)(C)C)C(C)C)c1ccccc1)C(O)CC(=O)NC(C(=O)NCc1ccc(C(=O)O)cc1)C(C)C` (centres unmarked) [Example 39], the half-inhibitory concentration (IC50) lay within 10 to 99 µM.
